Measured values published in ChEMBL document CHEMBL1201862, “PubChem BioAssay data set” (2004).
Calls of active or inactive are those of the source. Cut-off read from the data, not from the text of the source, for most assays here: actives have a measured EC50 and inactives only a lower limit.

What was measured:
INS1 = test: INS-1E survival protection against cytokine death – cell-based, luminescence, retest, dose response (AID 449756); type: functional; conditions: Rattus norvegicus;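 note: cell death triggered by IL-1 beta plus TNF-alpha plus IFN-gamma mixture; protective hits raise ATP signal compared with cytokine alone wells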
[1] = viability of uninfected HEp-2 cells – cell-based, HTS, cytotoxicity control for RSV inhibitor project, dose response (AID 2410); type: functional; conditions: human respiratory syncytial virus
[2] = luciferase reporter signal suppression in cells – H4 neuroglioma cells, luminescence, dose response (AID 1990); type: functional, cell-based
[3] = Luminescence Cell-Based Dose Response HTS to Identify Inhibitors of 5'UTR Stem-Loop Driven Prion Protein mRNA Translation in H4 Neuroglioblastoma Cells. [Related pubchem assays: 1827 (Project Summary), 1813 (Primary HTS)]; type: functional
[4] = alpha-synuclein stem-loop luciferase translation blockers – H4 neuroglioma cells, luminescence, confirmation (AID 1988); type: functional, cell-based
Cytochrome P450 3A4 = Cytochrome P450 3A4 (Homo sapiens, UniProt P08684);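 note: CYP3A4 tested as one member of a cytochrome P450 panel screen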
Sequence of Cytochrome P450 3A4 (P08684 whole entry): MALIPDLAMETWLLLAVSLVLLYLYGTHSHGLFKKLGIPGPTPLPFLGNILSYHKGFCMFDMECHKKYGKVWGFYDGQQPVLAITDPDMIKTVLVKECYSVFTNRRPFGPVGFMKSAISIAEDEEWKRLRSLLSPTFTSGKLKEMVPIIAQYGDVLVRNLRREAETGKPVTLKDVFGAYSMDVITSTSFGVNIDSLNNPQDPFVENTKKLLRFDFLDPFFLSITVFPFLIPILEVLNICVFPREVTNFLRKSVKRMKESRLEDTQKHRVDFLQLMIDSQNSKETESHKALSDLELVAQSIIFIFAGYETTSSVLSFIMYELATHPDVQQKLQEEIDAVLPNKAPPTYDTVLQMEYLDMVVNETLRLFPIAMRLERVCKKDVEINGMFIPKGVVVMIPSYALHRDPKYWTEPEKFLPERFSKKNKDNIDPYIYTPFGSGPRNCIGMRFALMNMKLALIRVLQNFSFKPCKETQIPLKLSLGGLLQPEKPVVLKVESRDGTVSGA

Protein RecA = target: T1, Protein RecA (Mycobacterium tuberculosis, UniProt P9WHJ3); test: Fluorescence Cell-Free Homogeneous Dose Retest to Identify Inhibitors of RecA-Intein Splicing Activity. [Related pubchem assays (depositor defined):AID2097, AID2223, AID489010, AID492950]; type: functional
T1 sequence (P9WHJ3 whole entry): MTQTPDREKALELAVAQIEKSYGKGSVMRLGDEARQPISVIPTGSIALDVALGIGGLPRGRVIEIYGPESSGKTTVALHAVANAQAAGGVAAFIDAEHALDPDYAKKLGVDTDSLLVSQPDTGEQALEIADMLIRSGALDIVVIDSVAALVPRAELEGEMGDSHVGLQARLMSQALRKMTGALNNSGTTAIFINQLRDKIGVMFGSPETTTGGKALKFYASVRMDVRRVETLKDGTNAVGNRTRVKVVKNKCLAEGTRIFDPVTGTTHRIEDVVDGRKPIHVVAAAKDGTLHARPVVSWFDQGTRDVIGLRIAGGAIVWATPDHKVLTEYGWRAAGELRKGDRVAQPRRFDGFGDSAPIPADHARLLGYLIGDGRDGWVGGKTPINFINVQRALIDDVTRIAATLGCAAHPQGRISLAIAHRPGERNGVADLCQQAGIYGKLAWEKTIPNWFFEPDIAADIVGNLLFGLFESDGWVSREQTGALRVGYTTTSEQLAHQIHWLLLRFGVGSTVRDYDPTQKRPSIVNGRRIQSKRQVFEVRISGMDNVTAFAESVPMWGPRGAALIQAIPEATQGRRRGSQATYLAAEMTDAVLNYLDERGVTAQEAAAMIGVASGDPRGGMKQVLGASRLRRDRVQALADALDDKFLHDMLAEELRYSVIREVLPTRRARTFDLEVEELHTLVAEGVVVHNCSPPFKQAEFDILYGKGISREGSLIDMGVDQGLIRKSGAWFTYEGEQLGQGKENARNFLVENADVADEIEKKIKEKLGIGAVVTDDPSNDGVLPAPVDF

[5] = NIH-3T3 fibroblast cytotoxicity, dose response, cytotoxicity control, cell-based, fluorescence, Alamar Blue, secondary assay (AID 2327); type: functional;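 note: NIH-3T3 mouse fibroblasts cultured with fluconazole at 8 µg/mL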
[6] = target: T2, Heat shock factor protein 1 (Mus musculus, UniProt P38532); test: decrease of HSF1-responsive luciferase luminescence – cell-based, NIH3T3, dose retest, confirmation (AID 2382); type: functional;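 note: NIH3T3 fibroblasts with HSF1-driven luciferase reporter stressed by proteasome inhibitor MG132; luminescence from HSF1-driven luciferase expression after 8 hours of MG132 stress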
T2 sequence (P38532 whole entry): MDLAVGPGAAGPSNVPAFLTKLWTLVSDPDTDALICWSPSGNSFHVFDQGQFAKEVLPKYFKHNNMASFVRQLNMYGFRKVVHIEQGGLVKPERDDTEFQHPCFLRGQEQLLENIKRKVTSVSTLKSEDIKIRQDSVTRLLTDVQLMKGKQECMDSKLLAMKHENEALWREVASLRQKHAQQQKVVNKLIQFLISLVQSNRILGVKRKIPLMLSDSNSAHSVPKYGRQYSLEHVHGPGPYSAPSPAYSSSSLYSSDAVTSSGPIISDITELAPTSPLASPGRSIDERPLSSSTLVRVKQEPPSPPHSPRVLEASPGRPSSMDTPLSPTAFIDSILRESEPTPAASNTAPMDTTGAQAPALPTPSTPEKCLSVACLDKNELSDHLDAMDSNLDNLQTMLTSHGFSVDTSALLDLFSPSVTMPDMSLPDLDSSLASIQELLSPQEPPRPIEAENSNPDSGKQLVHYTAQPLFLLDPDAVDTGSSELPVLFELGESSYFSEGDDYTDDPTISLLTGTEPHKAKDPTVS

[7] = tested on: Streptococcus sp. 'group A'; test: Streptococcus pyogenes SK(-)GAS viability under kanamycin – luminescence, BacTiterGlo, confirmation, counter-screen for streptokinase expression inhibitor project, dose response (AID 1900); type: functional, organism-based
Streptokinase A = target: T3, Streptokinase A (Streptococcus pyogenes serotype M1, UniProt P10520); test: viability-normalized secreted streptokinase activity reduction – plasminogen activation absorbance, OD405, dose response (AID 1914); type: functional, Streptococcus pyogenes M1 GAS;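 note: secreted streptokinase activity via plasminogen activation per viability signal from cell pellet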
T3 sequence (P10520 whole entry): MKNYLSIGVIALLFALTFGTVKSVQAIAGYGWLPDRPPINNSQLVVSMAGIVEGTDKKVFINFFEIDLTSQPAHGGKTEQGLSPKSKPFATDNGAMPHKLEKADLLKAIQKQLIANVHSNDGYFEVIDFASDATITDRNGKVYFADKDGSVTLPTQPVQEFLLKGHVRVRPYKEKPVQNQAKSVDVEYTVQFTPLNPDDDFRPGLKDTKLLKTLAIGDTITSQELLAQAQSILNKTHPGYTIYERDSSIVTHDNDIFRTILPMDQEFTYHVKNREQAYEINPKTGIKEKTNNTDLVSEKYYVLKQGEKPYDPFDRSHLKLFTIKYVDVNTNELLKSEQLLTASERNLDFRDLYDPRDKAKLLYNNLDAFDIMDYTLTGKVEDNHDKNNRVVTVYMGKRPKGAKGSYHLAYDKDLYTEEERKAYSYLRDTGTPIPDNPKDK

Streptococcus = test: GAS UMAA2166 growth inhibition – luminescence, BacTiterGlo, counter-screen for streptokinase expression inhibitor project, dose response (AID 1915); type: functional, organism-based;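 note: potency for reduction of bacterial viability or growth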
[8] = target: T4, RNA-binding protein pos-1 (Caenorhabditis elegans, UniProt G5EF15); test: disruptors of C. elegans POS-1 RNA interaction – biochemical, fluorescence polarization, dose response (AID 1964);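 note: purified POS-1 fused to maltose binding protein made in E. coli; potency of compounds blocking POS-1 binding to fluorescent RNA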
T4 sequence (G5EF15 whole entry): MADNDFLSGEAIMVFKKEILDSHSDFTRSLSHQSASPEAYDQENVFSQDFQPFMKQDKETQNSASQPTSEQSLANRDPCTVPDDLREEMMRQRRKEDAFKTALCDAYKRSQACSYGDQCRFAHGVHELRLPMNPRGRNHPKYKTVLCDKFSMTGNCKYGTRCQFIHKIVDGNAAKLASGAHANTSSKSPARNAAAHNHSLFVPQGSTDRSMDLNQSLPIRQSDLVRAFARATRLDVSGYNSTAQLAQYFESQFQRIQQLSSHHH

[9] = Luminescence Cell-Based Dose Response HTS to Identify Activators of Luciferase Translation or Activity in H4 […] Cells. [Related pubchem assays: 1829 (Project Summary), 1814 (Primary HTS)]; type: functional
H4 = test: Luminescence Cell-Based Dose Response HTS to Identify Activators of 5'UTR Stem-Loop Driven Prion Protein mRNA Translation in H4 Neuroglioblastoma Cells. [Related pubchem assays: 1829 (Project Summary), 1814 (Primary HTS)]; type: functional; conditions: Homo sapiens
[10] = non-specific 3'UTR reporter inhibition in Clone20-Shn3RL – cell-based, Renilla luciferase, cherry-picked, counter-screen for Shn3 inhibitor project, dose response (AID 624133); type: functional

With `C=C(C)C(=O)N1CC2(CC(c3cccc(NC(=O)COc4ccc(Cl)cc4)c3)=NO2)C[C@@H]1C(N)=O` (some centres undefined) the AC50 (INS1) was 9.67 µM (active).

For `CCc1ccc(Nc2nnc(SCc3cc(=O)n4ccsc4n3)s2)cc1`, the CC50 [1] was 26.4 µM (active).

With `COc1ccc(NC(=O)CN2C(=O)COc3ccc(S(=O)(=O)N4CCCCCC4)cc32)cc1` the EC50 [2] was > 120 µM (not active), the EC50 [3] was > 120 µM (not active) and the EC50 [4] was > 120 µM (not active).

With `CCn1c(SCc2cc(O)nc3ccccc23)nnc1C1CC1` the EC50 [2] was > 120 µM (not active), the EC50 [3] was > 120 µM (not active) and the EC50 [4] was > 120 µM (not active).

With `CC(O)CNc1nc2sc3c(c2c(=O)n1Cc1ccco1)CCCCC3` (centres undefined) the AC50 (INS1) was 45 µM (active).

For `CCNc1ncc2nc(CCc3ccccc3)c(=O)n(C)c2n1`, the AC50 (Cytochrome P450 3A4) was 31.6 µM (inconclusive).

In the case of `CCc1ccc(OC)c(S(=O)(=O)Nc2ccc(Cc3ccncc3)cc2)c1`, the AC50 (INS1) is reported as 3.7 µM (active).

For `c1ccc(-c2ccc(C3=Nn4c(nnc4-c4cccs4)SC3)cc2)cc1`, the CC50 [1] was 16.6 µM (active).

With `O=S(=O)(c1cccs1)N1CCN(CC(O)COc2cc(Cl)ccc2Cl)CC1` (centres undefined) the AC50 (INS1) was 5.11 µM (active).

With `CC(=O)OC[C@H]1O[C@@H](O/N=C(\C)CCN2CCCc3nc(C)c(C)cc32)[C@H](OC(C)=O)[C@@H](OC(C)=O)[C@H]1OC(C)=O` the AC50 (Cytochrome P450 3A4) was 3.98 µM (inconclusive).

With `CCOc1ccccc1-c1nnc(SCC(=O)NC2CC3CCC2C3)n1CC` (centres undefined) the EC50 [2] was > 120 µM (not active), the EC50 [3] was > 120 µM (not active) and the EC50 [4] was 16.7 µM (active).

In the case of `CCOC(=O)c1cccc(NC(=O)Nc2ccc(OCC)cc2)c1`, the EC50 [2] is reported as 11.2 µM (inconclusive), the EC50 [3] is reported as 10.8 µM (active) and the EC50 [4] is reported as 9.81 µM (active).

For `O=C(CSC1=NCCS1)Nc1ccc(S(=O)(=O)NC2CCCCC2)cc1`, the EC50 (Protein RecA) was 13.3 µM (active).

For `CN(c1ccccc1)S(=O)(=O)c1cccc(NC(=O)c2cccc(C#N)c2)c1`, the CC50 [1] was 16.1 µM (active).

In the case of `Cc1ccc(S(=O)(=O)N2CCN(C(=O)c3ccc(N4CCCCC4)c([N+](=O)[O-])c3)CC2)cc1`, the CC50 [1] is reported as > 50 µM (active).

For `Cc1cc(NC(=O)COC(=O)[C@@H](NS(=O)(=O)c2ccc(Br)cc2)C(C)C)no1`, the EC50 [5] was > 150 µM (inactive).

For `CC1(C)CC(NCc2ccc3c(c2)OCO3)CCO1` (centres undefined), the EC50 [6] was > 195 µM (not active) and the AC50 (Cytochrome P450 3A4) was 17.8 µM (inconclusive).

In the case of `S=C(c1ccc(-c2ccccc2)cc1)N1CCOCC1`, the EC50 [2] is reported as 10.9 µM (active), the EC50 [3] is reported as 15.5 µM (active) and the EC50 [4] is reported as 9.91 µM (active).

In the case of `CN1C(=O)N(C)c2cccc3cccc1c23`, the CC50 [1] is reported as 22.5 µM (active).

For `CC(=O)N1CCC2(CCCN(c3ccccc3)C2)CC1`, the AC50 (Cytochrome P450 3A4) was 20 µM (inconclusive).

In the case of `Cc1cc(NC(=O)CSc2nc3ccccc3[nH]2)n(-c2ccccc2)n1`, the EC50 [2] is reported as > 120 µM (not active), the EC50 [3] is reported as > 120 µM (not active) and the EC50 [4] is reported as > 120 µM (not active).

In the case of `O=S(=O)(c1ccccc1F)N1CCC(c2nc(O)c3nnn(Cc4ccc(F)cc4)c3n2)CC1`, the CC50 [1] is reported as 27 µM (active).

In the case of `O=C1CCSc2ccc(Cl)cc2N1Cc1ccc(Cl)cc1`, the CC50 [1] is reported as 23.4 µM (active), the EC50 [7] is reported as 7.8 µM (active) and the EC50 (Streptokinase A) is reported as 18.4 µM (active). The EC50 (Streptococcus) was 49.5 µM (active).

With `COc1ccc(N2C(=O)NC(=O)/C(=C\c3cn(C)c4ccccc34)C2=O)cc1` the EC50 [8] was 1.05 µM (active).

For `Cc1ccc(C(=O)NC2CCN(S(=O)(=O)c3ccc(C)cc3)CC2)cc1`, the EC50 [2] was > 120 µM (not active), the EC50 [3] was 4.43 µM (active) and the EC50 [4] was 45.4 µM (active).

In the case of `CC(=O)Nc1ccc(NC(=O)CSc2ccc3nnc(CCNS(=O)(=O)c4ccc(C)cc4)n3n2)cc1`, the EC50 [5] is reported as > 160 µM (inactive).

With `CCSC1=NC(/C=C/c2ccc(Cl)cc2Cl)=CC(C)(C)N1` the CC50 [1] was 18 µM (active).

With `Cc1ccc(C)c(N2CCN(S(=O)(=O)c3ccc(-c4cc(C)no4)s3)CC2)c1` the CC50 [1] was > 50 µM (active).

For `Cn1nc(C(F)(F)F)c2cc(C(=O)Nc3ccc(Cl)cc3)sc21`, the CC50 [1] was 21.4 µM (active).

In the case of `O=C(CNC(=O)c1ccc(F)cc1)c1ccc(Cl)cc1`, the EC50 [9] is reported as 0.717 µM (active) and the EC50 (H4) is reported as 79 µM (active).

In the case of `O=C(CSc1nc2cc(Cl)c[nH]c-2n1)N1CCOCC1`, the AC50 [10] is reported as 32.3 µM (active).

In the case of `C=CC/N=C1/S/C(=C/c2cccc([N+](=O)[O-])c2)C(=O)N1CC=C`, the CC50 [1] is reported as 28 µM (active).

For `CCOc1ccc(C(=O)N/N=C(\c2ccccc2)c2ccccn2)cc1`, the EC50 [7] was 4.25 µM (active), the EC50 (Streptokinase A) was > 150 µM (not active) and the EC50 (Streptococcus) was 11.8 µM (active). For the same molecule, the AC50 (INS1) was 1.19 µM (active).

With `CCCC/C(=N\CCc1c(C)[nH]c2ccc(OC)cc12)C1=C(O)CC(c2ccccc2)CC1=O` (centres undefined) the EC50 [2] was 9.11 µM (active), the EC50 [3] was > 120 µM (not active) and the EC50 [4] was 2.61 µM (active).

For `COc1ccccc1NC(=O)Nc1nc(-c2cccnc2)nc2ccccc12`, the AC50 (Cytochrome P450 3A4) was 0.631 µM (inconclusive).
